Entries after “also recorded” stand apart in the source; their conditions may differ.
Experiments:
[1] = Enhancement activity of adjuvant in DHA/glycine solution, color change by colorimeter; conditions: adjuvant 0.5-2 wt.% in solution with DHA and glycine
Text: A control solution was made as follows: Mixing vials were charged with 2.5 weight percent glycine, 2.5 percent by weight DHA and 0.2 M citric/citrate buffer solution to produce the desired control solution, pH 5.6. The balance of the control solutions was water. Compositions consistent with the invention were made as follows: about 0.5 to 2.0 weight percent adjuvant, 2.5 weight percent DHA and 2.5 weight percent glycine were combined, resulting in compositions consistent with this invention with water as the balance. The initial pH of the resulting adjuvant comprising solution was measured and adjusted with NaOH or citric acid, if necessary, to yield an adjuvant comprising solution, pH of about 5.6. The solutions were placed in a 35° C. oven and color change was assessed visually (by taking photos) and by measuring L*a*b* values utilizing a conventional colorimeter. L*a*b* values of the solutions were measured and assessed as set forth below.
Enhancement activity of pyrrole-2-carboxylic acid in solution was carried out on the solutions described in Table 2 and the color of the reaction system was detected and assessed with a colorimeter.
Delta L* was used to characterize color change whereby the larger Delta L* value reflects darker coloring. […] Pyrrole-2-carboxylic acid, therefore, is believed to catalyze the DHA/glycine Maillard reaction.

[2] = Enhancement activity of adjuvant in DHA composition on artificial skin (VitroSkin), color by colorimeter; conditions: for color enhancement activity on artificial skin (in words): adjuvant 0.5-2 wt.% in composition with DHA; for color quality (delta a*/delta b*, visual examination) in words: composition with DHA on artificial skin
Description: General procedure for in vitro testing: DHA, 2.5 weight percent, and 0.5 to 2.0 weight percent adjuvant were formulated into the base (as described in Table 1). About 20 mg of resulting composition was applied to VitroSkin® made available from IMS Company and applied in a circular pattern having a diameter around 2.4 cm. The artificial skin was pre-hydrated under 50% RH for 24 hours before use, and the skin was kept at a temperature of 35° C. under constant relative humidity (RH, 50%). Color development was evaluated with a colorimeter as defined below.
Enhancement activity of pyrrole-2-carboxylic acid was carried out on artificial skin when formulated in a ready-to-use composition with ingredients as described in Table 4 and color was detected and assessed with a colorimeter.

| Structure (SMILES) | DHA enhancement activity / color enhancement in solution (in words) [1] | color enhancement activity on artificial skin (in words) [2] | color quality (delta a*/delta b*, visual examination) in words [2] | DHA enhancement activity / color enhancement in solution (in words) ([1]; listed as 1-H-indole-2-carboxylic acid) |
| --- | --- | --- | --- | --- |
| Cn1cccc1C(=O)O [1-methyl-2-pyrrolecarboxylic acid] | excellent DHA enhancement activity | color enhancement activity; also recorded: excellent DHA enhancer | more natural color via visual examination; also recorded: better than that of the control at all concentrations tested | – |
| O=C(O)c1cc2ccccc2[nH]1 [1H-indole-2-carboxylic acid] | excellent color enhancement | – | – | excellent coloring properties |
| CC(=O)c1cccn1C [2-acetyl-1-methylpyrrole] | surprisingly good color enhancement | color enhancement of artificial skin | – | – |
| CC(=O)c1ccco1 [2-acetylfuran] | – | color enhancement of artificial skin | – | – |
| CC(=O)c1ccc[nH]1 [2-acetylpyrrole] | surprisingly good color enhancement | color enhancement of artificial skin | – | – |
| O=C(O)c1ccco1 [2-furoic acid] | – | color enhancement of artificial skin | – | – |
| O=C(CO)CO [DHA, 1,3-dihydroxy-2-propanone, reference compound] | – | – | yellowish | – |
| COC(=O)c1ccc[nH]1 [methyl-2-pyrrole carboxylate] | surprisingly good color enhancement | – | – | – |
| O=C(O)c1ccc[nH]1 [pyrrole-2-carboxylic acid] | significantly enhanced DHA activity at all concentrations tested | DHA color enhancement activity at all tested concentrations | longer lasting and more natural color | – |

Reference: patent publication US8398959B2, “Compositions and methods for imparting a sunless tan with functionalized adjuvants” (Conopco, Inc., priority 2010, dated 2013)
